Assay results: ChEMBL document CHEMBL3351497, “Structure Activity Relationships of αv Integrin Antagonists for Pulmonary Fibrosis by Variation in Aryl Substituents” (ACS Med Chem Lett, 2014)

Experiments:
Integrin alpha-V/beta-6 [1] = biological target: T1, Integrin alpha-V/beta-6 (Homo sapiens, UniProt P06756+P18564); test: Inhibition of integrin alphavbeta6 (unknown origin)-mediated K562 cell adhesion to LAPb1 coated surface by fluorescence analysis; format: cell-based
Integrin alpha-V/beta-6 [2] = biological target: T1, Integrin alpha-V/beta-6; test: Inhibition of integrin alphavbeta6 (unknown origin) by Merck AG cell assay; format: cell-based
[3] = Lipophilicity, log D of the compound by HPLC chromatographic method; format: physicochemical
Integrin alpha-V/beta-8 = Integrin alpha-V/beta-8 (Homo sapiens, UniProt P06756+P26012); test: Inhibition of integrin alphavbeta8 (unknown origin)-mediated K562 cell adhesion to LAPb1 coated surface by fluorescence analysis; format: cell-based
Integrin alpha-V/beta-8, sequence (P06756 31-889 limits assumed): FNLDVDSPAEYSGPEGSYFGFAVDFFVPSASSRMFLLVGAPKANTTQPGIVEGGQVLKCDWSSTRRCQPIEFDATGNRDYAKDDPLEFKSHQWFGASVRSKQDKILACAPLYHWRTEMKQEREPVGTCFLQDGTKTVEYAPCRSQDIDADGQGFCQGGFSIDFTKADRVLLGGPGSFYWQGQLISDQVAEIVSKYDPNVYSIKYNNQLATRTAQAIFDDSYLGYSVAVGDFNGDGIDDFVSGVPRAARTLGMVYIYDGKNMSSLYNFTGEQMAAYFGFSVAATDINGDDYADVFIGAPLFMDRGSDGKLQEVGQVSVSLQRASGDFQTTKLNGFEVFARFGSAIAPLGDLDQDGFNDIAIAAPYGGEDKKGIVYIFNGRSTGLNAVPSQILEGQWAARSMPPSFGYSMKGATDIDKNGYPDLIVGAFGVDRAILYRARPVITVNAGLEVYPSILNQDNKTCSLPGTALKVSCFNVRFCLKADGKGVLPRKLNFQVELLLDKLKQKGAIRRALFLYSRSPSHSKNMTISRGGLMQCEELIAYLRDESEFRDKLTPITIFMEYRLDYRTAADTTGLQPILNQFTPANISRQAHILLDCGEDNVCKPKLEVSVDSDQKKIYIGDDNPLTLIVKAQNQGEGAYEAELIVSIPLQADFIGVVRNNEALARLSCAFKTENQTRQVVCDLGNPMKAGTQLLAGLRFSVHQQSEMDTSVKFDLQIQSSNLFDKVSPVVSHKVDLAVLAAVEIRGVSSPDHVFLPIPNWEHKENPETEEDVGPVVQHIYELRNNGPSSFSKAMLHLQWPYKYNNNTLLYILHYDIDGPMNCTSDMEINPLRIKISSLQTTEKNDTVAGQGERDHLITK
Integrin alpha-V/beta-8, sequence (P06756 891-1048 limits assumed): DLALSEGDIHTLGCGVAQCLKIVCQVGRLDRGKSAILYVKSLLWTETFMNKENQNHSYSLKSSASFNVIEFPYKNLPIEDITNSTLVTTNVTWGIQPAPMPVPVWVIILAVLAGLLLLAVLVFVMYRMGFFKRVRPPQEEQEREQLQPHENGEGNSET
Integrin alpha-V/beta-8, sequence (P26012 43-769 limits assumed): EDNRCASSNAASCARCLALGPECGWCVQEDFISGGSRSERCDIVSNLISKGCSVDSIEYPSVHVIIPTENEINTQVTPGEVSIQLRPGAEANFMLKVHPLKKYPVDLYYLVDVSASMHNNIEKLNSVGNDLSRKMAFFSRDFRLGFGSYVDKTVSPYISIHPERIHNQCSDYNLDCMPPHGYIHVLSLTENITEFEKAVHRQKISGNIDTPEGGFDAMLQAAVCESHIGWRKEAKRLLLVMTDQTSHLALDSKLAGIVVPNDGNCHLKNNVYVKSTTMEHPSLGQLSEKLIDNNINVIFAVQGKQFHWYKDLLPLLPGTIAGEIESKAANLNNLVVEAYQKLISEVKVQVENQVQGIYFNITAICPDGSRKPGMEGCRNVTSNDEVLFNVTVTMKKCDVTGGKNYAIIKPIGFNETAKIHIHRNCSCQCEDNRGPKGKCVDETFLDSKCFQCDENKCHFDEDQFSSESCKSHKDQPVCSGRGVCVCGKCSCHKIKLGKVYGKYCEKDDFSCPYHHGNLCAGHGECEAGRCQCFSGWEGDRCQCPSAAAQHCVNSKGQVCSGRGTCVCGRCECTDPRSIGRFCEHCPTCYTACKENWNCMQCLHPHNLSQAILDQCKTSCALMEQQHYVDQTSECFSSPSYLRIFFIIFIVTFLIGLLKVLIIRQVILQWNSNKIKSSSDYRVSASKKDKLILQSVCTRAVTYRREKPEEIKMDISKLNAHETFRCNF

Integrin alpha-V/beta-3 [4] = biological target: T2, Integrin alpha-V/beta-3 (Homo sapiens, UniProt P05106+P06756); test: Inhibition of integrin alphavbeta3 (unknown origin)-mediated K562 cell adhesion to LAPb1 coated surface by fluorescence analysis; format: cell-based
T2 sequence (P05106 27-788 limits assumed): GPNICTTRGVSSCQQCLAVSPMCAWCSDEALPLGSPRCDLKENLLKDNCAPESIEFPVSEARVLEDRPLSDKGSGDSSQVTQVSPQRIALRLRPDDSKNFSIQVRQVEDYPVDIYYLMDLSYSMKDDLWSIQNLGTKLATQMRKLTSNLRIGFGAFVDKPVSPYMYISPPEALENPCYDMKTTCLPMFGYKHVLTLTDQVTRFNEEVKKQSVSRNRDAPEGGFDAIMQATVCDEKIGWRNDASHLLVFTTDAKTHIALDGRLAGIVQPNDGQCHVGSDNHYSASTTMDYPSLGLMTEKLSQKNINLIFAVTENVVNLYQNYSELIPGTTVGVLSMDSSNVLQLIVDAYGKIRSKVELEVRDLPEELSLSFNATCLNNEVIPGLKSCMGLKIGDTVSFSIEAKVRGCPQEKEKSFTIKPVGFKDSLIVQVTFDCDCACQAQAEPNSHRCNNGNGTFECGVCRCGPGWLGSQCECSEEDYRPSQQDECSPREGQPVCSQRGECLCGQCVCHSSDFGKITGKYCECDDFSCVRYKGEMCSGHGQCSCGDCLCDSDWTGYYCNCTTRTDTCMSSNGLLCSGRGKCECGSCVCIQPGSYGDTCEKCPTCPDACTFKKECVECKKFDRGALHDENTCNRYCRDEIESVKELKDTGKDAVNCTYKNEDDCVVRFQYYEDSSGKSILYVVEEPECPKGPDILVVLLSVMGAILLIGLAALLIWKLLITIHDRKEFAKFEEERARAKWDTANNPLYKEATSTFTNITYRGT
T2 sequence (P06756 31-889 limits assumed): as the sequence (P06756 31-889 limits assumed) above
T2 sequence (P06756 891-1048 limits assumed): as the sequence (P06756 891-1048 limits assumed) above

Integrin alpha-V/beta-5 = Integrin alpha-V/beta-5 (Homo sapiens, UniProt P06756+P18084); test: Inhibition of integrin alphavbeta5 (unknown origin)-mediated K562 cell adhesion to vitronectin coated surface by fluorescence analysis; format: cell-based
Integrin alpha-V/beta-5, sequence (P06756 31-889 limits assumed): as the sequence (P06756 31-889 limits assumed) above
Integrin alpha-V/beta-5, sequence (P06756 891-1048 limits assumed): as the sequence (P06756 891-1048 limits assumed) above
Integrin alpha-V/beta-5, sequence (P18084 24-799 limits assumed): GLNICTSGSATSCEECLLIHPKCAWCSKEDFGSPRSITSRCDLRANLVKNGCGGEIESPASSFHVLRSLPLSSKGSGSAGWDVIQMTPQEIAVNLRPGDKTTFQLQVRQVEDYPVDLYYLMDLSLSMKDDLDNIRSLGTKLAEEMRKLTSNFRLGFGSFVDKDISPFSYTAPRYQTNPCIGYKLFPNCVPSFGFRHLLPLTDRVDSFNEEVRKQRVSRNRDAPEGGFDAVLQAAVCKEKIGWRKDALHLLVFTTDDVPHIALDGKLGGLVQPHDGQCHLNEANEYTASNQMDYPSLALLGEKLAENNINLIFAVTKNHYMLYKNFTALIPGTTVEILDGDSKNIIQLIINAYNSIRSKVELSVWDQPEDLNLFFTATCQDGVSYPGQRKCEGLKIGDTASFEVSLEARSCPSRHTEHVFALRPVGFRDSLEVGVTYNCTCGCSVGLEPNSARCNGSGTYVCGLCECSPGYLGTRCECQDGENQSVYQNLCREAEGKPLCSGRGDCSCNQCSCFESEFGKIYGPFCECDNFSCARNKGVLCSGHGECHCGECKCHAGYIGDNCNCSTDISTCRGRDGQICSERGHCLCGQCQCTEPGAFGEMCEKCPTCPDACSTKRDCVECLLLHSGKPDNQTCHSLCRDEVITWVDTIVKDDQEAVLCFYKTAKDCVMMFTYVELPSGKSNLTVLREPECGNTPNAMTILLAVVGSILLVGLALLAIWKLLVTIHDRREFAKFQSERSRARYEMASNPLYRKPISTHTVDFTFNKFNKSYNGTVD

K562 [5] = test: Selectivity ratio of IC50 for integrin alphavbeta8 (unknown origin)-mediated K562 cell adhesion to LAPb1 coated surface to IC50 for integrin alphavbeta5 (unknown origin)-mediated K562 cell adhesion to vitronectin coated surface; format: cell-based; settings: Homo sapiens
K562 [6] = test: Selectivity ratio of IC50 for integrin alphavbeta8 (unknown origin)-mediated K562 cell adhesion to LAPb1 coated surface to IC50 for integrin alphavbeta3 (unknown origin)-mediated K562 cell adhesion to LAPb1 coated surface; format: cell-based; settings: Homo sapiens
K562 [7] = test: Selectivity ratio of IC50 for integrin alphavbeta6 (unknown origin)-mediated K562 cell adhesion to LAPb1 coated surface to IC50 for integrin alphavbeta3 (unknown origin)-mediated K562 cell adhesion to LAPb1 coated surface; format: cell-based; settings: Homo sapiens
K562 [8] = test: Selectivity ratio of IC50 for integrin alphavbeta6 (unknown origin)-mediated K562 cell adhesion to LAPb1 coated surface to IC50 for integrin alphavbeta5 (unknown origin)-mediated K562 cell adhesion to vitronectin coated surface; format: cell-based; settings: Homo sapiens
Integrin alpha-V/beta-3 [9] = biological target: T2, Integrin alpha-V/beta-3; test: Inhibition of integrin alphavbeta3 (unknown origin) by Merck binding assay; format: protein-complex assay

T1 sequence (P06756 31-889 limits assumed): as the sequence (P06756 31-889 limits assumed) above
T1 sequence (P06756 891-1048 limits assumed): as the sequence (P06756 891-1048 limits assumed) above
T1 sequence (P18564 22-788 limits assumed): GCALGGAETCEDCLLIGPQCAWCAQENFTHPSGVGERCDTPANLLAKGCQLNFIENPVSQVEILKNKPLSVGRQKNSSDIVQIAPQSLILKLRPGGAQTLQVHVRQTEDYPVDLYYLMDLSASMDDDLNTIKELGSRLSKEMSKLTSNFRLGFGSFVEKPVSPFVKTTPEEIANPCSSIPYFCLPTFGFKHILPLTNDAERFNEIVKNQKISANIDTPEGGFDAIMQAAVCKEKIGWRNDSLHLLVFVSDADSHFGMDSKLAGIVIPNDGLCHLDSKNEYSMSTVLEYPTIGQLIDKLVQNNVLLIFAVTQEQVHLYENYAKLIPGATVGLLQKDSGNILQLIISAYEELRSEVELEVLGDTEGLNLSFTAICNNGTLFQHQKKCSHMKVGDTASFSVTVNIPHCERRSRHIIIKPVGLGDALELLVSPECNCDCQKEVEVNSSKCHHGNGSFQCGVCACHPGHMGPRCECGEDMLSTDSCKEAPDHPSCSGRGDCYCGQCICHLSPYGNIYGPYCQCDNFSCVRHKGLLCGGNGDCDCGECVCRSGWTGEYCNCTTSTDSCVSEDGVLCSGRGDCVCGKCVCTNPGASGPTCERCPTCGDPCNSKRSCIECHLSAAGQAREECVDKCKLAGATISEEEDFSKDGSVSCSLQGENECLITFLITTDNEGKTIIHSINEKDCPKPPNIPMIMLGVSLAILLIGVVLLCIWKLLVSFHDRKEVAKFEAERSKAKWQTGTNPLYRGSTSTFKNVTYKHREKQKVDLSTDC

Row | SMILES | IC50 (Integrin alpha-V/beta-6 [1]) [nM] | IC50 (Integrin alpha-V/beta-6 [2]) [nM] | chromatographic logD [3] | IC50 (Integrin alpha-V/beta-8) [nM] | IC50 (Integrin alpha-V/beta-3 [4]) [nM] | IC50 (Integrin alpha-V/beta-5) [nM] | IC50 (Integrin alpha-V/beta-3 [9]) [nM] | logD [3] | Ratio IC50 (K562 [5]) | Ratio IC50 (K562 [6]) | Ratio IC50 (K562 [7]) | Ratio IC50 (K562 [8])
1 | O=C(O)C[C@H](NC(=O)C(COCc1ccccc1)NC(=O)CCCCNc1ccccn1)c1cc(Cl)cc(Cl)c1 (stereo not given in full) | 1000 | 200 |  |  |  |  |  |  |  |  |  | 
2 | O=C(O)C[C@@H](NC(=O)CCCCc1ccc2c(n1)NCCC2)c1cccc(C(F)(F)F)c1 | 6310 |  | 2.61 | > 10000 | > 10000 | 2000 |  |  |  |  |  | 
3 | O=C(O)CC(NC(=O)CCCCc1ccc2c(n1)NCCC2)c1ccc(Cl)cc1 (racemic) | 398 |  | 2.14 | 631 | 126 | 126 |  |  |  |  |  | 
4 | O=C(O)CC(NC(=O)CCCCc1ccc2c(n1)NCCC2)c1ccccc1 (racemic) | 2000 |  | 1.56 | 794 | 100 | 79.4 |  |  | 10 | 10 | 10 | 10
5 | O=C(O)CC(NC(=O)CCCCc1ccc2c(n1)NCCC2)c1ccccc1F (racemic) | 1000 |  | 1.88 | 3980 | 316 | 100 |  |  |  |  |  | 
6 | O=C(O)CC(NC(=O)CCCCc1ccc2c(n1)NCCC2)c1ccccc1Cl (racemic) | > 10000 |  | 1.92 | > 10000 | 2000 | 1580 |  |  |  |  |  | 
7 | Cc1ccccc1C(CC(=O)O)NC(=O)CCCCc1ccc2c(n1)NCCC2 (racemic) | 398 |  | 1.85 | 1260 | 50.1 | 20 |  |  |  |  |  | 
8 | COc1ccccc1C(CC(=O)O)NC(=O)CCCCc1ccc2c(n1)NCCC2 (racemic) | > 10000 |  | 1.83 | > 10000 | 501 | 501 |  |  |  |  |  | 
9 | O=C(O)CC(NC(=O)CCCCc1ccc2c(n1)NCCC2)c1cccc(F)c1 (racemic) | 794 |  | 1.92 | 1580 | 31.6 | 15.8 | 23 |  | 10 | 10 | 10 | 10
10 | Cc1cccc(C(CC(=O)O)NC(=O)CCCCc2ccc3c(n2)NCCC3)c1 (racemic) | 398 |  | 1.95 | 631 | 158 | 50.1 |  |  |  |  |  | 
11 | COc1cccc(C(CC(=O)O)NC(=O)CCCCc2ccc3c(n2)NCCC3)c1 (racemic) | 316 |  | 1.66 | 501 | 39.8 | 63.1 |  |  | 10 | 10 | 10 | 10
12 | O=C(O)CC(NC(=O)CCCCc1ccc2c(n1)NCCC2)c1ccc(F)cc1 (racemic) | 501 |  | 1.75 | 501 | 100 | 63.1 |  |  |  |  |  | 
13 | Cc1ccc(C(CC(=O)O)NC(=O)CCCCc2ccc3c(n2)NCCC3)cc1 (racemic) | 794 |  | 1.97 | 1000 | 39.8 | 100 |  |  |  |  |  | 
14 | COc1ccc(C(CC(=O)O)NC(=O)CCCCc2ccc3c(n2)NCCC3)cc1 (racemic) | 501 |  | 1.64 | 501 | 25.1 | 50.1 |  |  | 10 | 10 | 10 | 10
15 | N#Cc1ccc(C(CC(=O)O)NC(=O)CCCCc2ccc3c(n2)NCCC3)cc1 (racemic) | 398 |  | 1.47 | 794 | 79.4 | 398 |  |  |  |  |  | 
16 | O=C(O)CC(NC(=O)CCCCc1ccc2c(n1)NCCC2)c1ccc(C(F)(F)F)cc1 (racemic) | 631 |  | 2.72 | 794 | 251 | 316 |  |  |  |  |  | 
17 | O=C(O)CC(NC(=O)CCCCc1ccc2c(n1)NCCC2)c1ccc(OC(F)(F)F)cc1 (racemic) | 631 |  | 2.85 | 794 | 158 | 501 |  |  |  |  |  | 
18 | CS(=O)(=O)c1ccc(C(CC(=O)O)NC(=O)CCCCc2ccc3c(n2)NCCC3)cc1 (racemic) | 631 |  | 1.08 | 794 | 126 | 398 |  |  |  |  |  | 
19 | O=C(O)CC(NC(=O)CCCCc1ccc2c(n1)NCCC2)c1ccc(-c2ccccc2)cc1 (racemic) | 398 |  | 3.1 | 316 | 100 | 631 |  |  |  |  |  | 
20 | O=C(O)CC(NC(=O)CCCCc1ccc2c(n1)NCCC2)c1cccc(Cl)c1Cl (racemic) | 7940 |  | 2.73 | 10000 | 3980 | 501 |  |  |  |  |  | 
21 | Cc1cc(C)cc(C(CC(=O)O)NC(=O)CCCCc2ccc3c(n2)NCCC3)c1 (racemic) | 501 |  | 2.43 | 631 | 398 | 398 |  |  |  |  |  | 
22 | COc1ccc(C(CC(=O)O)NC(=O)CCCCc2ccc3c(n2)NCCC3)cc1OC (racemic) | 316 |  | 1.37 | 398 | 100 | 63.1 |  |  |  |  |  | 
23 | O=C(O)CC(NC(=O)CCCCc1ccc2c(n1)NCCC2)c1ccc2c(c1)OCO2 (racemic) | 251 |  | 1.47 | 794 | 15.8 | 12.6 |  |  |  |  |  | 
24 | O=C(O)CC(NC(=O)CCCCc1ccc2c(n1)NCCC2)c1ccc(Cl)c(C(F)(F)F)c1 (single isomer, unassigned; enantiomer 2) | > 10000 |  |  | > 10000 | 1580 | 631 |  | 3.25 |  |  |  | 
25 | O=C(O)CC(NC(=O)CCCCc1ccc2c(n1)NCCC2)c1cc(Cl)cc(Cl)c1 (stereo in doubt; 37E1) | 6310 |  |  | > 10000 | > 10000 | 1000 |  | 2.97 |  |  |  | 

Now from value to molecule, other results behind:

Row | IC50 (Integrin alpha-V/beta-6 [1]) [nM] | IC50 (Integrin alpha-V/beta-6 [2]) [nM] | chromatographic logD [3] | IC50 (Integrin alpha-V/beta-8) [nM] | IC50 (Integrin alpha-V/beta-3 [4]) [nM] | IC50 (Integrin alpha-V/beta-5) [nM] | IC50 (Integrin alpha-V/beta-3 [9]) [nM] | logD [3] | SMILES | Ratio IC50 (K562 [5]) | Ratio IC50 (K562 [6]) | Ratio IC50 (K562 [7]) | Ratio IC50 (K562 [8])
26 | 158 |  |  |  |  |  |  |  | N=C(N)Nc1cccc(C(=O)NCC(=O)NC(CC(=O)O)c2cc(Cl)cc(Cl)c2)c1 (stereo not given) |  |  |  | 
27 | 79.4 |  | 2.72 | 126 | 100 | 63.1 |  |  | O=C(O)C[C@H](NC(=O)CCCCc1ccc2c(n1)NCCC2)c1cccc(C(F)(F)F)c1 |  |  |  | 
28 | 251 |  | 2.3 | 501 | 79.4 | 25.1 |  |  | O=C(O)CC(NC(=O)CCCCc1ccc2c(n1)NCCC2)c1cccc(Cl)c1 (racemic) |  |  |  | 
29 | 251 |  | 1.67 | 1000 | 200 | 39.8 |  |  | N#Cc1cccc(C(CC(=O)O)NC(=O)CCCCc2ccc3c(n2)NCCC3)c1 (racemic) |  |  |  | 
30 | 100 |  | 2.73 | 158 | 200 | 39.8 |  |  | O=C(O)CC(NC(=O)CCCCc1ccc2c(n1)NCCC2)c1cccc(C(F)(F)F)c1 (racemic) |  |  |  | 
31 | 200 |  | 3.11 | 251 | 398 | 79.4 |  |  | O=C(O)CC(NC(=O)CCCCc1ccc2c(n1)NCCC2)c1cccc(OC(F)(F)F)c1 (racemic) |  |  |  | 
32 | 200 |  | 2.62 | 200 | 50.1 | 100 |  |  | O=C(O)CC(NC(=O)CCCCc1ccc2c(n1)NCCC2)c1ccc(Cl)c(Cl)c1 (racemic) |  |  |  | 
33 | 251 |  | 2.93 | 251 | 398 | 200 |  |  | O=C(O)CC(NC(=O)CCCCc1ccc2c(n1)NCCC2)c1cc(Cl)cc(Cl)c1 (racemic) |  |  |  | 
34 | 200 |  | 2.29 | 501 | 63.1 | 63.1 |  |  | Cc1ccc(C(CC(=O)O)NC(=O)CCCCc2ccc3c(n2)NCCC3)cc1C (racemic) |  |  |  | 
35 | 158 |  | 2.52 | 398 | 126 | 79.4 |  |  | O=C(O)CC(NC(=O)CCCCc1ccc2c(n1)NCCC2)c1ccc2c(c1)CCC2 (racemic) |  |  |  | 
36 | 100 |  | 3.1 | 251 | 316 | 126 |  |  | O=C(O)CC(NC(=O)CCCCc1ccc2c(n1)NCCC2)c1ccc(Cl)c(C(F)(F)F)c1 (racemic) |  |  |  | 
37 | 63.1 |  |  | 126 | 158 | 63.1 |  | 3.28 | O=C(O)CC(NC(=O)CCCCc1ccc2c(n1)NCCC2)c1ccc(Cl)c(C(F)(F)F)c1 (single isomer, unassigned; enantiomer 1) |  |  |  | 
38 | 158 |  |  | 100 | 126 | 251 |  | 2.8 | O=C(O)CC(NC(=O)CCCCc1ccc2c(n1)NCCC2)c1cc(Cl)cc(Cl)c1 (single isomer, unassigned; enantiomer 2) |  |  |  | 
